Experimental data from patent US20260165323A1, “USE OF STROBILURIN TYPE COMPOUNDS FOR COMBATING PHYTOPATHOGENIC FUNGI CONTAINING AN AMINO ACID SUBSTITUTION F129L IN THE MITOCHONDRIAL CYTOCHROME B PROTEIN CONFERRING RESISTANCE TO QO […]” (priority 2022, published 2026).

Assays:
Format in all cases: in vivo
[1] = system: Phakopsora pachyrhizi containing the amino acid substitution F129L in the mitochondrial cytochrome b protein; experiment: Use Example 1: protective control of soybean rust on soybeans (PHAKPA P2); settings: inoculated 2 days after spraying, % diseased leaf area
Description: (§1) The compound was dissolved in a mixture of acetone and/or dimethylsulfoxide and the wetting agent/emulsifier Wettol, which is based on ethoxylated alkylphenoles, in a ratio (volume) solvent-emulsifier of 99 to 1 to give a total volume of 5 ml. Subsequently, water was added to total volume of 100 ml. This stock solution was then diluted with the described solvent-emulsifier-water mixture to the final concentration given in the tables below.
Use Example 1. Protective Control of Soybean Rust on Soybeans Caused by Phakopsora pachyrhizi (PHAKPA P2)
(§2) Leaves of potted soybean seedlings were sprayed to run-off with the previously described spray solution, containing the concentration of active ingredient or their mixture as described below. The plants were allowed to air-dry. The trial plants were cultivated for 2 days in a greenhouse chamber at 23-27° C. and a relative humidity between 60 and 80%. Then the plants were inoculated with spores of Phakopsora pachyrhizi. The strain used contains the amino acid substitution F129L in the mitochondrial cytochrome b protein conferring resistance to Qo inhibitors. To ensure the success the artificial inoculation, the plants were transferred to a humid chamber with a relative humidity of about 95% and 20 to 24° C. for 24 hr. The trial plants were cultivated for up to 14 days in a greenhouse chamber at 23 to 27° C. and a relative humidity between 60 and 80%. The extent of fungal attack on the leaves was visually assessed as % diseased leaf area, the disease level of untreated controls was usually higher than 85%.

Puccinia recondita [2] = experiment: Use Example 3: curative control of brown rust on wheat (PUCCRT K4); settings: % diseased leaf area
Description: as §1
Use Example 3. Curative Control of Brown Rust on Wheat Caused by Puccinia recondita (PUCCRT K4)
The first two developed leaves of potted wheat seedling were dusted with spores of Puccinia recondita. To ensure the success the artificial inoculation, the plants were transferred to a humid chamber without light and a relative humidity of 95 to 99% and 20 to 24° C. for 24 h. The next 3 days the plants were cultivated in a greenhouse chamber at 20 to 24° C. and a relative humidity between 65 and 70%. Then the plants were sprayed to run-off with previously described spray solution, containing the concentration of active ingredient or their mixture as described below. The plants were allowed to air-dry. Then the trial plants were cultivated for 5 to 7 days in a greenhouse chamber at 20 to 24° C. and a relative humidity between 65 and 70%. The extent of fungal attack on the leaves was visually assessed as % diseased leaf area, the disease level of untreated controls was usually between 80 and 100%.

Puccinia recondita [3] = experiment: Use Example 4: preventative control of brown rust on wheat (PUCCRT P7); settings: inoculated seven days after spraying, % diseased leaf area
Description: as §1
Use Example 4. Preventative Control of Brown Rust on Wheat Caused by Puccinia recondita (PUCCRT P7)
The first two developed leaves of potted wheat seedling were sprayed to run-off with previously described spray solution, containing the concentration of active ingredient or their mixture as described below. Seven days later the plants were dusted with spores of Puccinia recondita. To ensure the success of the artificial inoculation, the plants were transferred to a humid chamber without light and a relative humidity of 95 to 99% and 20 to 24° C. for 24 h. Then the trial plants were cultivated for 9 to 11 days in a greenhouse chamber at 20 to 24° C. and a relative humidity between 65 and 70%. The extent of fungal attack on the leaves was visually assessed as % diseased leaf area, the disease level of untreated controls was usually between 80 and 100%.

[4] = system: Phakopsora pachyrhizi containing the amino acid substitution F129L in the mitochondrial cytochrome b protein; experiment: Use Example 2: protective control of soybean rust on soybeans (PHAKPA P6); settings: inoculated six days after spraying, % diseased leaf area
Description: as §1
Use Example 2. Protective Control of Soybean Rust on Soybeans Caused by Phakopsora Pachyrhizi (PHAKPA P6)
as §2, with “active ingredient as described” for “active ingredient or their mixture as described”, “cultivated for six days in” for “cultivated for 2 days in”, “95% and 23 to 27°” for “95% and 20 to 24°”, “23 to 27° C. for” for “20 to 24° C. for”

| SMILES | % PHAKPA (F129L) Disease level P2 at 4 ppm [1] [%] | % PHAKPA (F129L) Disease level P2 at 16 ppm [1] [%] | % PUCCRT Disease level K4 at 4 ppm (Puccinia recondita [2]) [%] | % PUCCRT Disease level K4 at 16 ppm (Puccinia recondita [2]) [%] | % PUCCRT Disease level P7 at 4 ppm (Puccinia recondita [3]) [%] | % PUCCRT Disease level P7 at 16 ppm (Puccinia recondita [3]) [%] | % PHAKPA (F129L) Disease level P6 at 4 ppm [4] [%] | % PHAKPA (F129L) Disease level P6 at 16 ppm [4] [%] |
| --- | --- | --- | --- | --- | --- | --- | --- | --- |
| CO/C=C(/C(=O)OC)c1cccc(Cl)c1CO/N=C(\COC)c1cc(Cl)ccc1F [compound 105] | 18 | 2 | 42 | 5 | 44 | 4 | 13 | 0 |
| CCOCC(=NOCc1c(Cl)cccc1C(=COC)C(=O)OC)c1ccccc1F [compound 18] | 6 | 0 | 77 | 32 | 80 | 30 | 22 | 2 |
| CO/C=C(/C(=O)OC)c1cccc(Br)c1CO/N=C(/C#Cc1ccc(F)cc1)COC [compound 8, Methyl-(E)-2-[3-bromo-2-[[(Z)-[3-(4-fluorophenyl)-1-(methoxymethyl)prop-2-ynylidene]amino]oxymethyl]phenyl]-3-methoxy-prop-2-enoate] | 2 | 0 | 6 | 0 | 0 | 0 | 12 | 0 |
| COC/C(=N\OCc1c(Cl)cccc1/C(=N\OC)C(=O)OC)c1cccc(F)c1 [compound 25] | 82 | 23 | 83 | 78 | 35 | 5 | 90 | 58 |
| CNC(=O)/C(=N/OC)c1cccc(Cl)c1CO/N=C(\COC)c1cccc(Cl)c1F [compound 99] | 21 | 1 | 82 | 10 | 42 | 7 | 17 | 2 |
| CNC(=O)/C(=N/OC)c1cccc(Cl)c1CO/N=C(\COC)c1ccc(F)cc1 [compound 2, (2E)-2-[3-chloro-2-[[(Z)-[1-(4-fluorophenyl)-2-methoxyethylidene]amino]oxymethyl]phenyl]-2-methoxyimino-N-methyl-acetamide] | 16 | 0 | 63 | 4 | 15 | 5 | 0 | 1 |
| CO/C=C(/C(=O)OC)c1cccc(Cl)c1CO/N=C(\COC)c1cc(F)c(F)c(F)c1 [compound 67] | 10 | 0 | 36 | 3 | 4 | 3 | 14 | 0 |
| COC/C(=N\OCc1c(Cl)cccc1/C(=N\OC)C(=O)OC)c1ccccc1F [compound 19] | 33 | 6 | 87 | 80 | 53 | 15 | 77 | 31 |
| COC/C(=N\OCc1c(Cl)cccc1/C(=N\OC)C(=O)OC)c1c(F)cc(F)cc1F [compound 28] | 67 | 13 | 75 | 77 | 57 | 4 | 85 | 27 |
| CCOC/C(=N\OCc1c(Cl)cccc1/C(=N\OC)C(=O)NC)c1ccc(F)cc1 [compound 48] | 80 | 7 | 77 | 50 | 63 | 17 | 80 | 17 |
| CO/C=C(/C(=O)OC)c1cccc(Cl)c1CO/N=C(\COC)c1ccccc1 [compound 11, Methyl-(E)-2-[3-chloro-2-[[(Z)-(2-methoxy-1-phenyl-ethylidene)amino]oxymethyl]phenyl]-3-methoxy-prop-2-enoate] | 2 | 0 | 7 | 0 | 25 | 1 | 11 | 0 |
| CCOC/C(=N\OCc1c(Cl)cccc1/C(=N\OC)C(=O)NC)c1ccccc1F [compound 22] | 15 | 4 | 80 | 63 | 53 | 28 | 40 | 4 |
| CNC(=O)/C(=N/OC)c1cccc(Cl)c1CO/N=C(\COC)c1cccc(OC)c1 [compound 119] | 32 | 0 | 42 | 2 | 13 | 1 | 36 | 5 |
| CNC(=O)/C(=N/OC)c1cccc(Cl)c1CO/N=C(\COC)c1ccc(F)c(F)c1 [compound 97] | 3 | 0 | 9 | 3 | 23 | 4 | 17 | 1 |
| COC/C(=N\OCc1c(Cl)cccc1/C(=N\OC)C(=O)OC)c1c(F)cccc1F [compound 83] | 2 | 0 | 37 | 18 | 32 | 12 | 0 | 0 |
